In patent publication US4076702A, “Dipeptide derivatives and their production” (Shionogi & Co., Ltd., priority 1974, dated 1978):

Columns and labels:
DS male mice [1] = experiment: Anti-pentylenetetrazol activity; format: in vivo; settings: test compound orally 60 minutes prior to 125 mg/kg s.c. pentylenetetrazol, complete protection against mortality, observed two hours; for ED50: Mus musculus
Text: (1) Anti-pentylenetetrazol activity:
The convulsions were disregarded.

DS male mice [2] = experiment: Taming activity (inhibition of electroshock-induced fighting response); format: in vivo; settings: compound given 60 minutes prior, 5 pairs per group; for ED50: Mus musculus
Procedure: This test was measured on DS male mice. […] These pairs of mice were selected in the morning and used for drug test in the afternoon. The test compound was administered to both mice of the pairs 60 minutes prior to the experiment. Results were obtained as the mean percentage of inhibition of fighting response in a group of 5 pairs and shown by ED50 [Tedeschi, et al.: J. Pharmacol Exp. Thev., 125, 28-34 (1959)].

DS male mice [3] = settings: oral single dose, observed 72 hours, Bliss method
Procedure: The test compound was orally administered to DS male mice in different single doses. For each dose, 10 mice were used, their weight ranging from 20 to 23 grams. […] The mortality was calculated by the Bliss method [Bliss: Ann.

DS male mice [4] = experiment: Rotarod performance activity; format: in vivo; settings: fall from rod within less than 2 minutes counted as effective, 10 mice per dose; for ED50: Mus musculus
Procedure: (3) Rotarod performance activity
This test was measured on DS male mice. The mouse was put on a scraped rod of wood, 3 cm in diameter, turning at the rate of five rotations per minute. The mice that could remain on the rod for three or more minutes in successive trials were selected and placed in a group of 10 mice for each dose. If the mouse fell down from the rod within less than 2 minutes, the test compound was considered to be effective. Results were shown by ED50 [Dunham, et al.: J. Am. Pharm. Assoc., 46, 208 (1957)].

Row | SMILES | Anti-pentylenetetrazol activity, ED50 (DS male mice [1]) [mg/kg] | Taming activity ED50 (DS male mice [2]) [mg/kg] | Acute toxicity LD50 (DS male mice [3]) [mg/kg] | Rotarod performance ED50 (DS male mice [4]) [mg/kg] | ED50 (DS male mice [1]) [mg/kg] | ED50 (DS male mice [2]) [mg/kg] | ED50 (DS male mice [4]) [mg/kg]
1 | CN(C(=O)CNC(=O)CN)c1ccc(Cl)cc1C(=O)c1ccccc1 [Compound No. 1, 2-benzoyl-4-chloro-N-methyl-N^α -glycyl-glycinanilide] | 1.0 | 10.5 | 1309 | 36.6 | – | – | –
2 | CN(C(=O)CNC(=O)CN)c1ccc(Cl)cc1C(=O)c1ccccc1Cl.O [Compound No. 2, 2-o-chlorobenzoyl-4-chloro-N-methyl-N^α -glycyl-glycinanilide hydrate] | 0.58 | 3.0 | 1255 | 27.7 | – | – | –
3 | CN(C(=O)CNC(=O)CN)c1ccc(Cl)cc1C(=O)c1ccccc1F.Cl [Compound No. 3, 2-o-fluorobenzoyl-4-chloro-N-methyl-N^α -glycyl-glycinanilide hydrochloride] | 0.33 | 1.6 | > 1000 | 17.0 | – | – | –
4 | CNC1=Nc2ccc(Cl)cc2C(c2ccccc2)=[N+]([O-])C1 [Compound No. 4, Chlordiazepoxide, reference compound] | – | – | 1090 | – | 3.7 | 24 | 50
5 | CN1C(=O)CN=C(c2ccccc2)c2cc(Cl)ccc21 [Compound No. 5, Diazepam, reference compound] | – | – | – | – | 1.19 | 6 | 9.03
